Results: ChEMBL document CHEMBL5465560, “Selectivity Literature for EUbOPEN Chemogenomic Library” (2024)

Key:
[1] = target: RAC-gamma serine/threonine-protein kinase (Homo sapiens, UniProt Q9Y243); assay: Selectivity interaction (SelectScreen profiling (Invitrogen)) EUB0000607a AKT3; details: at 2 µM
[2] = target: Insulin receptor-related protein (Homo sapiens) (UniProt P14616); assay: Selectivity interaction (KinomeScan (DiscoverX)) EUB0000607a INSRR; details: at 10 µM
[3] = target: T1, Ephrin type-A receptor 3 (Homo sapiens) (UniProt P29320); assay: Selectivity interaction (SelectScreen profiling (Invitrogen)) EUB0000607a EPHA3; details: at 2 µM
T1 sequence (whole entry): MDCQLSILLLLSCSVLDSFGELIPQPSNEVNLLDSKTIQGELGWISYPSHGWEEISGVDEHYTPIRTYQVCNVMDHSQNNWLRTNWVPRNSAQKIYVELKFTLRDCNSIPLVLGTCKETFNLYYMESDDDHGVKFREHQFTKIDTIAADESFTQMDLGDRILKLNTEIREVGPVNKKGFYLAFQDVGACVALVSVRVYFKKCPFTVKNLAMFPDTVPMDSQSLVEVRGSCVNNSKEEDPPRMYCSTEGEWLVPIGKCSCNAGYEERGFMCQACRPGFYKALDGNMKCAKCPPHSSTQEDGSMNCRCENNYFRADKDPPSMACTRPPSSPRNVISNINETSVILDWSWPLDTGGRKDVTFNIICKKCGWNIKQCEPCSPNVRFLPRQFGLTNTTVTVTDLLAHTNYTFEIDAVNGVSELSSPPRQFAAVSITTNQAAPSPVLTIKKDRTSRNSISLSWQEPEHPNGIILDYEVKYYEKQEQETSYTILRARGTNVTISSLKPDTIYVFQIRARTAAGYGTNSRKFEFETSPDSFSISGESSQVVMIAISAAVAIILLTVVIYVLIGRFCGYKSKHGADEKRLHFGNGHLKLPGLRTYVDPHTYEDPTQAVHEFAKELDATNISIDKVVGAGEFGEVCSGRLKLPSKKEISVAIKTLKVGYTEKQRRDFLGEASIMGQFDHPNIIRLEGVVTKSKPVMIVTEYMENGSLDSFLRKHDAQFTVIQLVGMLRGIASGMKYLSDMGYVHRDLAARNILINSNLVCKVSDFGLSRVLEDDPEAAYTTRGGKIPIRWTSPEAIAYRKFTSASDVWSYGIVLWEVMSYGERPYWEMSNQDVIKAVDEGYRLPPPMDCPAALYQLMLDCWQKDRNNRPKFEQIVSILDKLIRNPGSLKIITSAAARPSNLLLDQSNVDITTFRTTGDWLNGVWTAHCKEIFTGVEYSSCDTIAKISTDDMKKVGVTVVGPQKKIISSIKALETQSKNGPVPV

[4] = target: Tyrosine-protein kinase HCK (Homo sapiens) (UniProt P08631); assay: Selectivity interaction (ActivX KiNativ screen (kinase selectivity in THP-1 cell lysates)) EUB0000639a HCK; type: subcellular; details: lysate, at 0.2 µM
[5] = target: T2, Receptor-interacting serine/threonine-protein kinase 4 (Homo sapiens) (UniProt P57078); assay: Selectivity interaction (Ambit KINOMEscan and KiNATiv profiling in Jurkat cells) EUB0000090b RIPK4; type: cell-based; details: at 1 µM
T2 sequence (whole entry): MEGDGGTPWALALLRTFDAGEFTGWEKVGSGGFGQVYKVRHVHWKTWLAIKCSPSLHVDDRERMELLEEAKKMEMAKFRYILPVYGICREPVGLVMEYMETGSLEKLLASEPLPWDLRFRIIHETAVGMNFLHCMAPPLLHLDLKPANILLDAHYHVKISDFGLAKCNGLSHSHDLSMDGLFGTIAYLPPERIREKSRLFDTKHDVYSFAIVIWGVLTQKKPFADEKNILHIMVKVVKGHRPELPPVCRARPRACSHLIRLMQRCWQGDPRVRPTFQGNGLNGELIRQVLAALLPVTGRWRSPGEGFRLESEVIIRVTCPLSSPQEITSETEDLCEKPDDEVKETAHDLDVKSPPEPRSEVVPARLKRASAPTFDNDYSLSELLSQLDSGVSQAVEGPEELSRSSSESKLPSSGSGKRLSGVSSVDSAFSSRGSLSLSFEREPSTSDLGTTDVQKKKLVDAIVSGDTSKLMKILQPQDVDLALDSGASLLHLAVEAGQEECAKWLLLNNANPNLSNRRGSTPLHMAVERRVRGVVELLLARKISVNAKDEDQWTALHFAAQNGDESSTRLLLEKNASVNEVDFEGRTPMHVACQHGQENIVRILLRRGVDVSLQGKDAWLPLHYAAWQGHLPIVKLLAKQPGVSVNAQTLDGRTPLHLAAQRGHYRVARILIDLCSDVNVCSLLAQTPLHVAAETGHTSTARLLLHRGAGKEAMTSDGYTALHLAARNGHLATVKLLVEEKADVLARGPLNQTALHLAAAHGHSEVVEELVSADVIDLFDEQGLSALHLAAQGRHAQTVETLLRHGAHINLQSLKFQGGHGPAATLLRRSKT

[6] = test system: Tyrosine-protein kinase ABL1 (Homo sapiens), P00519 [F317L]; assay: Selectivity interaction (KinomeScan (DiscoverX)) EUB0000655a ABL1; details: at 10 µM
[7] = target: T3, Interleukin-1 receptor-associated kinase 3 (Homo sapiens) (UniProt Q9Y616); assay: Selectivity interaction (KinomeScan (DiscoverX)) EUB0000229b IRAK3; details: at 10 µM
T3 sequence (whole entry): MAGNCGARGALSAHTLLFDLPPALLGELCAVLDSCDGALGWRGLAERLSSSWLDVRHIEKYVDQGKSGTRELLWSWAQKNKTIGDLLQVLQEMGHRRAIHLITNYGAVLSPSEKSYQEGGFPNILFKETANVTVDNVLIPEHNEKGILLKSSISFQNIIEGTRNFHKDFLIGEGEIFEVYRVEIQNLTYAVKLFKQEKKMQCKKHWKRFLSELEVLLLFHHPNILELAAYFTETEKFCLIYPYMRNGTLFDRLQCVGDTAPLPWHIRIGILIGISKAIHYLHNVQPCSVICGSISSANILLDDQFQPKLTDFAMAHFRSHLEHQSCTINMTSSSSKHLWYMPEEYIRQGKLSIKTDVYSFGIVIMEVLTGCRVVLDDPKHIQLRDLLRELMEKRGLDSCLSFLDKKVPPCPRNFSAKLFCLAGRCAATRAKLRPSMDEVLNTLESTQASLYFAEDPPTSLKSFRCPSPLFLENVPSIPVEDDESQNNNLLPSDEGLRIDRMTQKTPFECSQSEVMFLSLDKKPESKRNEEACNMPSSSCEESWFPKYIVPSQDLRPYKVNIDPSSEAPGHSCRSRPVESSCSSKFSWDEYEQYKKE

[8] = target: Serine/threonine-protein kinase SBK1 (Homo sapiens) (UniProt Q52WX2); assay: Selectivity interaction (KinomeScan (DiscoverX)) EUB0000092b SBK1; details: at 10 µM
Sequence of Serine/threonine-protein kinase SBK1 (Homo sapiens) (Q52WX2 whole entry): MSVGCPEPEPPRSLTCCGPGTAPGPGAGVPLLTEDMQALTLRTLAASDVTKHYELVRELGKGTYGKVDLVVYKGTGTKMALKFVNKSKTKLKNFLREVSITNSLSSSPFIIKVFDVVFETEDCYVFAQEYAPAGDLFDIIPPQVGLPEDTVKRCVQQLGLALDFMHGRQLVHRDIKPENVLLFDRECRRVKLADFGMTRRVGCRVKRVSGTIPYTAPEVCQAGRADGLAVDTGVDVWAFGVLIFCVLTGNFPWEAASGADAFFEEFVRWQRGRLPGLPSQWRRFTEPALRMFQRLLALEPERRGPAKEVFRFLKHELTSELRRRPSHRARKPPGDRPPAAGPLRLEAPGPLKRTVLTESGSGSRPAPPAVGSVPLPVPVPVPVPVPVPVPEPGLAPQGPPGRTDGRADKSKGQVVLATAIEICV

Sequence of Tyrosine-protein kinase HCK (Homo sapiens) (P08631 2-526 limits assumed): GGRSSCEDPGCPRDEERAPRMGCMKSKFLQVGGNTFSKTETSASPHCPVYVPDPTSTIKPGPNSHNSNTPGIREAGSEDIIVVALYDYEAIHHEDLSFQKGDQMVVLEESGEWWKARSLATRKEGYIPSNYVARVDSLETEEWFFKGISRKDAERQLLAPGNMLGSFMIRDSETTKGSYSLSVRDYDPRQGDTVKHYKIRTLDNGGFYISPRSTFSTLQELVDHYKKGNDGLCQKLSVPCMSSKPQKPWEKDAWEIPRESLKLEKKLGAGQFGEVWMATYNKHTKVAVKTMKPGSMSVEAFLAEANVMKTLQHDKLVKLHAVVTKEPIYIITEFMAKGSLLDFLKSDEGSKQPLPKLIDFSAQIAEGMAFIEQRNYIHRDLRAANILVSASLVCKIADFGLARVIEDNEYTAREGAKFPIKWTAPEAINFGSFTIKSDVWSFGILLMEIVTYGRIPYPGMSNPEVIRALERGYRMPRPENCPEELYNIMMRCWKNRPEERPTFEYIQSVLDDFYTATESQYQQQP
Sequence of Tyrosine-protein kinase ABL1 (Homo sapiens), P00519 [F317L] (P00519 whole entry F317L): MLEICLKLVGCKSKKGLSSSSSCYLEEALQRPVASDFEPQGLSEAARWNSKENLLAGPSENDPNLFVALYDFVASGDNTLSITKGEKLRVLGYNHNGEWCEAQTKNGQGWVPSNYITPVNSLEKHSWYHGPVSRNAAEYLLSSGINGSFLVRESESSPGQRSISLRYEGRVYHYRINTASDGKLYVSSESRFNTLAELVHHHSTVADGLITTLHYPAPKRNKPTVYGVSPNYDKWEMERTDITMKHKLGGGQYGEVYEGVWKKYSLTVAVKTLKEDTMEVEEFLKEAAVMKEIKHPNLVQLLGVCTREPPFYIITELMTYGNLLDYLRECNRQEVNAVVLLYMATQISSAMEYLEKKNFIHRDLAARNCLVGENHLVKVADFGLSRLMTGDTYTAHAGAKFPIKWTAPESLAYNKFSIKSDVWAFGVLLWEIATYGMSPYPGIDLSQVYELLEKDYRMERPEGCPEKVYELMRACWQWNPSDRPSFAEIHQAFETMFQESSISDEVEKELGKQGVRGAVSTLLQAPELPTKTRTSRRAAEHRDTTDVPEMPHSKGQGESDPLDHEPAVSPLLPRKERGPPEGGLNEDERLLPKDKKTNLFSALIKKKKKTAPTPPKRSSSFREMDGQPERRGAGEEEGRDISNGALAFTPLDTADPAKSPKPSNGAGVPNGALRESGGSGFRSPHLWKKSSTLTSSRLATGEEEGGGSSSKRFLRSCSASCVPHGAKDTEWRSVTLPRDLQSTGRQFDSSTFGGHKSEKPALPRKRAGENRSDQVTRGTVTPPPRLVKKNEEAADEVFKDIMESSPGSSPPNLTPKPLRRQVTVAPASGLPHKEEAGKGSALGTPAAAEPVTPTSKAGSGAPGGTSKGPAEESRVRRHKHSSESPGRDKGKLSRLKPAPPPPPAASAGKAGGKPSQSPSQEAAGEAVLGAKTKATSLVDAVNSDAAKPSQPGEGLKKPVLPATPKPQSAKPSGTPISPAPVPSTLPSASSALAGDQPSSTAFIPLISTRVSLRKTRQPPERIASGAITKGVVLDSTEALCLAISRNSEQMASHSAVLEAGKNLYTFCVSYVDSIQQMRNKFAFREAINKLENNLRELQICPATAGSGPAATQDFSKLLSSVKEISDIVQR
Sequence of RAC-gamma serine/threonine-protein kinase (Q9Y243 whole entry): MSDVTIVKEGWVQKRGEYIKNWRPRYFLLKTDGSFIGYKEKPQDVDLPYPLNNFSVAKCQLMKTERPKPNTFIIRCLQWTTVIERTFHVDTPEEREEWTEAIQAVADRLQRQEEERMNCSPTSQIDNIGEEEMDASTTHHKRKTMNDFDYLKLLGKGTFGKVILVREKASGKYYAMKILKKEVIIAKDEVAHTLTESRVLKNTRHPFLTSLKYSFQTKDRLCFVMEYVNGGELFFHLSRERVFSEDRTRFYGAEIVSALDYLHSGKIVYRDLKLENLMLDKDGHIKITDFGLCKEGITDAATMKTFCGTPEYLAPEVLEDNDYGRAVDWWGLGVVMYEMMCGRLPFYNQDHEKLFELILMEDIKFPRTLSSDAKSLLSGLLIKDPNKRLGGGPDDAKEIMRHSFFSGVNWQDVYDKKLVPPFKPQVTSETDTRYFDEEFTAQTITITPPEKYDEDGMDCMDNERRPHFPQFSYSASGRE
Sequence of Insulin receptor-related protein (Homo sapiens) (P14616 27-742 limits assumed): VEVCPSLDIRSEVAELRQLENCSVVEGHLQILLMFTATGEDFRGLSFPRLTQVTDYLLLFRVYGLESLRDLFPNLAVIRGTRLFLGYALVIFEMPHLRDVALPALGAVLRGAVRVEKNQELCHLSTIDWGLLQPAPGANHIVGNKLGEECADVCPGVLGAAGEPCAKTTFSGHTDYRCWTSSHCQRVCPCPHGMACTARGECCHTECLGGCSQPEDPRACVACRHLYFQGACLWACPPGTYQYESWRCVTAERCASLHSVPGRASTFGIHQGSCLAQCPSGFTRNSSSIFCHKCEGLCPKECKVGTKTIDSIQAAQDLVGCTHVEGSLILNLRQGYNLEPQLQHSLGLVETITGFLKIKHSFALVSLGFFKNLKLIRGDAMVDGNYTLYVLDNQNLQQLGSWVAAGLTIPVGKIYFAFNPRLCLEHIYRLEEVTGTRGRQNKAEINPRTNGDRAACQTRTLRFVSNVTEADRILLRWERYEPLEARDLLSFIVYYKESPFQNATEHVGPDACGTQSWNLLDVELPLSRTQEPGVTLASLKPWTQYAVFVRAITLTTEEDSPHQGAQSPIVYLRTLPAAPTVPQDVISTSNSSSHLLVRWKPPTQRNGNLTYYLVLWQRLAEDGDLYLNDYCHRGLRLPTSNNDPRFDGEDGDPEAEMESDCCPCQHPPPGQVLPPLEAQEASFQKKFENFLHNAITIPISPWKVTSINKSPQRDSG
Sequence of Insulin receptor-related protein (Homo sapiens) (P14616 747-1297 limits assumed): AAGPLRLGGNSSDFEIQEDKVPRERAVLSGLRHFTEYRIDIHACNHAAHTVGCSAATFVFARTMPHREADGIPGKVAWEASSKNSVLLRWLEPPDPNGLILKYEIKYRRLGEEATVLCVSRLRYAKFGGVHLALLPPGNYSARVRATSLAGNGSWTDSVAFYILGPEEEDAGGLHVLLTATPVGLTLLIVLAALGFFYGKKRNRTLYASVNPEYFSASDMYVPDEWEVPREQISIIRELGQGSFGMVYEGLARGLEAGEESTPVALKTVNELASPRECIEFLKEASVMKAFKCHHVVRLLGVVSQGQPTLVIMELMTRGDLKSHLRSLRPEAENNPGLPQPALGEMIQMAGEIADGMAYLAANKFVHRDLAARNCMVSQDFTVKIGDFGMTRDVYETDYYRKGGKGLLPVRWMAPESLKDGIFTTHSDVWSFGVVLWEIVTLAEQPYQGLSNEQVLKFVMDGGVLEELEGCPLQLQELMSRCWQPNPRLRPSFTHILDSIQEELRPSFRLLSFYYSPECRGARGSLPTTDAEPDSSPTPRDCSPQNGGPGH

Work on `CNC(=O)Nc1ccc(-c2nc(N3CC4CCC(C3)O4)c3cnn(C4CCC5(CC4)OCCO5)c3n2)cc1` yielded a % of inhibition [1] of 2%, a % of control [2] of 100% and a % of inhibition [3] of 4%.
`CC[C@@H]1[C@H](F)C(=O)N[C@@H]1COc1nccc2cc(C(N)=O)c(OC)cc12` [ZIMLOVISERTIB] showed a % of inhibition [4] of -32.6%.
With `CN(C)C/C=C/C(=O)Nc1ccc(C(=O)N2CCCC(Nc3ncc(Cl)c(-c4c[nH]c5ccccc45)n3)C2)cc1` (stereo not drawn) the % of control [5] was 86%.
Compound `CN(C)CCOc1ccc(-c2nc(-c3ccncc3)c(-c3ccc4c(c3)CC/C4=N\O)[nH]2)cc1` has a % of control [6] of 59%.
With `COc1cc(N(C)c2ccnc3ccc(C(F)(F)F)cc23)cc(OC)c1OC` the % binding [7] was 0%.
With `CCC(=O)N1CCN(c2ccc(-n3c(=O)ccc4cnc5ccc(-c6cnc7ccccc7c6)cc5c43)cc2C(F)(F)F)CC1` the % of control [8] was 88%.
